# According to the supplement of paper PMC11061612:
# What was measured:
# [1] = tested on: U-698-M; conditions: B-Cell Non-Hodgkin's Lymphoma
# How it was run: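 Viability was measured with CellTiter-Glo 2.0 luminescence after 72 hours of dosing at a final DMSO of typically 0.2%, and scaled between blank-well and DMSO-well means. Beforehand, cancer cell lines sat 24 hours at 37°C and 5% CO2 in 1536-well plates in 7.5 μl DMEM/F12 or RPMI with 10% FBS. A non-linear mixed effects model fitted two-parameter logistic curves to the dose responses. The single-agent IC50 comes from these fits.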
# [2] = tested on: FU97 (Gastric Carcinoma); assay: combination Emax (second highest fraction inhibited in the dose matrix, 72 h); higher = more inhibition; extreme values may be limits of the assay
# How it was run: (§1)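 Cell lines in DMEM/F12 or RPMI with 10% FBS were plated in 1536-well plates, held 24 hours at 37°C, 5% CO2, then given two-drug dose matrices for 72 hours (DMSO typically 0.2%). Viability was read by CellTiter-Glo 2.0 luminescence and scaled as inhibition from 0 (vehicle wells) to 1 (blank wells). Combination Emax is the second-highest inhibition in the matrix; Bliss excess is observed combination effect minus expected EA + EB − EA·EB, EA and EB being single-agent effects.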
# [3] = tested on: BICR22 (Oral Cavity Carcinoma); assay: as above
# How it was run: as §1
# [4] = tested on: NCI-H1581 (Non-Small Cell Lung Carcinoma); assay: as above
# How it was run: as §1
# [5] = tested on: PANC-10-05 (Pancreatic Carcinoma); assay: as above
# How it was run: as §1
# [6] = tested on: U-2-OS (Osteosarcoma); assay: as above
# How it was run: as §1
# [7] = tested on: NCI-H64 (Small Cell Lung Carcinoma); assay: as above
# How it was run: as §1
# [8] = tested on: NCI-H1666 (Lung Adenocarcinoma); assay: as above
# How it was run: as §1
# [9] = tested on: IGR-37 (Melanoma); assay: as above
# How it was run: as §1
# [10] = tested on: ECC10 (Gastric Carcinoma); assay: as above
# How it was run: as §1
# [11] = tested on: ONS-76 (Other Solid Carcinomas); assay: as above
# How it was run: as §1
# [12] = tested on: VCaP (Prostate Carcinoma); assay: as above
# How it was run: as §1
# [13] = tested on: KARPAS-422 (B-Cell Non-Hodgkin's Lymphoma); assay: as above
# How it was run: as §1
# [14] = tested on: CCK-81 (Colorectal Carcinoma); assay: as above
# How it was run: as §1
# [15] = tested on: TT (Thyroid Gland Carcinoma); assay: as above
# How it was run: as §1
# [16] = tested on: NY (Osteosarcoma); assay: as above
# How it was run: as §1
# [17] = tested on: COLO-320-HSR (Colorectal Carcinoma); assay: as above
# How it was run: as §1
# [18] = tested on: CAPAN-2 (Pancreatic Carcinoma); assay: as above
# How it was run: as §1
# [19] = tested on: NCI-H2066 (Squamous Cell Lung Carcinoma); assay: as above
# How it was run: as §1
# [20] = tested on: FU97 (Gastric Carcinoma); assay: Bliss excess, mean over the matrix (fraction); higher = more synergy
# How it was run: as §1
# [21] = tested on: BICR22 (Oral Cavity Carcinoma); assay: as above
# How it was run: as §1
# [22] = tested on: NCI-H1581 (Non-Small Cell Lung Carcinoma); assay: as above
# How it was run: as §1
# [23] = tested on: PANC-10-05 (Pancreatic Carcinoma); assay: as above
# How it was run: as §1
# [24] = tested on: U-2-OS (Osteosarcoma); assay: as above
# How it was run: as §1
# [25] = tested on: NCI-H64 (Small Cell Lung Carcinoma); assay: as above
# How it was run: as §1
# [26] = tested on: NCI-H1666 (Lung Adenocarcinoma); assay: as above
# How it was run: as §1
# [27] = tested on: IGR-37 (Melanoma); assay: as above
# How it was run: as §1
# [28] = tested on: ECC10 (Gastric Carcinoma); assay: as above
# How it was run: as §1
# [29] = tested on: ONS-76 (Other Solid Carcinomas); assay: as above
# How it was run: as §1
# [30] = tested on: VCaP (Prostate Carcinoma); assay: as above
# How it was run: as §1
# [31] = tested on: KARPAS-422 (B-Cell Non-Hodgkin's Lymphoma); assay: as above
# How it was run: as §1
# [32] = tested on: CCK-81 (Colorectal Carcinoma); assay: as above
# How it was run: as §1
# [33] = tested on: TT (Thyroid Gland Carcinoma); assay: as above
# How it was run: as §1
# [34] = tested on: NY (Osteosarcoma); assay: as above
# How it was run: as §1
# [35] = tested on: COLO-320-HSR (Colorectal Carcinoma); assay: as above
# How it was run: as §1
# [36] = tested on: CAPAN-2 (Pancreatic Carcinoma); assay: as above
# How it was run: as §1
# [37] = tested on: NCI-H2066 (Squamous Cell Lung Carcinoma); assay: as above
# How it was run: as §1
# 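Throughout, for Bliss excess, mean over the matrix: after 72 h of two-drug dosing.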
compound,measurement,setting,value
O=C(Nc1ccc2[nH]nc(-c3ccncc3)c2c1)[C@@H]1CCN(CC(=O)N2CCN(c3ccc(-c4ncccn4)cc3)CC2)C1,"IC50, cell viability 72 h",[1]; max 5 µM,> 5000 nM
O=c1[nH]cc(F)c(=O)[nH]1 [5-Fluorouracil],"IC50, cell viability 72 h",[1]; max 20 µM,> 20000 nM
CN(C)CCCOc1ccc(-c2ccc3ncc4c(c3c2)n(C2CCOCC2)c(=O)n4C)cn1 [AZD0156],"IC50, cell viability 72 h",[1]; max 3 µM,> 3000 nM
CC(C)n1c(=O)n(C)c2cnc3cc(F)c(-c4ccc(OCCCN5CCCCC5)nc4)cc3c21 [AZD1390],"IC50, cell viability 72 h",[1]; max 0.3 µM,> 300 nM
C=CCn1c(=O)c2cnc(Nc3ccc(N4CCN(C)CC4)cc3)nc2n1-c1cccc(C(C)(C)O)n1 [AZD1775],"IC50, cell viability 72 h",[1]; max 3 µM,260 nM
CCN(CCO)CCCOc1ccc2c(Nc3cc(CC(=O)Nc4cccc(F)c4)[nH]n3)ncnc2c1 [AZD2811],"IC50, cell viability 72 h",[1]; max 1 µM,> 1000 nM
CN(CCO)CC[C@H](CSc1ccccc1)Nc1ccc(S(=O)(=O)NC(=O)c2ccc(N3CCC([C@@H](O)c4ccccc4-c4ccc(Cl)cc4)CC3)cc2)cc1S(=O)(=O)C(F)(F)F [AZD4320],"IC50, cell viability 72 h",[1]; max 1 µM,> 1000 nM
COc1nnc2ccc(N3CCC(c4ccc(OCCN5CCN(C)C(=O)[C@H]5C)cc4)CC3)nn12 [AZD5153],"IC50, cell viability 72 h",[1]; max 1 µM,265 nM
NC1(C(=O)N[C@@H](CCO)c2ccc(Cl)cc2)CCN(c2ncnc3[nH]ccc23)CC1 [AZD5363],"IC50, cell viability 72 h",[1]; max 10 µM,8270 nM
Cc1c2c(nn1C)CSCc1cc(n(C)n1)CSc1cc(c3ccccc3c1)OCCCc1c(C(=O)O)n(C)c3c-2c(Cl)ccc13 [AZD5991],"IC50, cell viability 72 h",[1]; max 1 µM,69.2 nM
C[C@@H]1COCCN1c1cc(C2([S@](C)(=N)=O)CC2)nc(-c2ccnc3[nH]ccc23)n1 [AZD6738],"IC50, cell viability 72 h",[1]; max 10 µM,2210 nM
Cc1cc2ncnn2cc1Nc1ncc2c(n1)n(C1CCOCC1)c(=O)n2C [AZD7648],"IC50, cell viability 72 h",[1]; max 10 µM,> 10000 nM
C[C@@H](Nc1cc(F)cc(F)c1)c1cc(C(=O)N(C)C)cc2c(=O)cc(N3CCOCC3)oc12 [AZD8186],"IC50, cell viability 72 h",[1]; max 10 µM,> 10000 nM
COc1cc(Nc2ncc3c(n2)-c2ccc(Cl)cc2C(c2c(F)cccc2OC)=NC3)ccc1C(=O)O [Alisertib],"IC50, cell viability 72 h",[1]; max 10 µM,8030 nM
N.N.O=C([O-])C1(C(=O)[O-])CCC1.[Pt+2] [Carboplatin],"IC50, cell viability 72 h",[1]; max 10 µM,> 10000 nM
C[C@@H](Oc1cc(-c2cnn(C3CCNCC3)c2)cnc1N)c1c(Cl)ccc(F)c1Cl [Crizotinib],"IC50, cell viability 72 h",[1]; max 10 µM,5060 nM
Cc1nc(Nc2ncc(C(=O)Nc3c(C)cccc3Cl)s2)cc(N2CCN(CCO)CC2)n1 [Dasatinib],"IC50, cell viability 72 h",[1]; max 2 µM,> 2000 nM
COc1cccc2c1C(=O)c1c(O)c3c(c(O)c1C2=O)C[C@@](O)(C(=O)CO)C[C@@H]3O[C@H]1C[C@H](N)[C@H](O)[C@H](C)O1 [Doxorubicin],"IC50, cell viability 72 h",[1]; max 1 µM,495 nM
"N#Cc1cnc(Nc2cc(NC[C@H]3CNCCO3)c(C(F)(F)F)cn2)cn1 [SRA737] + Nc1ccn([C@@H]2O[C@H](CO)[C@@H](O)C2(F)F)c(=O)n1 [Gemcitabine] (first compound max 10 µM, 7x7, partner max 0.3 µM)",combination Emax,[2],0.318
same,combination Emax,[3],0.946
same,combination Emax,[4],0.957
same,combination Emax,[5],0.584
same,combination Emax,[6],0.829
same,combination Emax,[7],0.863
same,combination Emax,[8],0.54
same,combination Emax,[9],0.782
same,combination Emax,[10],0.859
same,combination Emax,[11],0.811
same,combination Emax,[12],0.77
same,combination Emax,[13],0.852
same,combination Emax,[14],0.859
same,combination Emax,[15],0.469
same,combination Emax,[16],0.808
same,combination Emax,[17],0.815
same,combination Emax,[18],0.319
same,combination Emax,[19],0.208
same,Bliss excess,[20],-0.0494
same,Bliss excess,[21],0.0636
same,Bliss excess,[22],0.176
same,Bliss excess,[23],0.0598
same,Bliss excess,[24],0.051
same,Bliss excess,[25],0.0476
same,Bliss excess,[26],0.0128
same,Bliss excess,[27],-0.09
same,Bliss excess,[28],0.0624
same,Bliss excess,[29],-0.0843
same,Bliss excess,[30],-0.0259
same,Bliss excess,[31],0.0409
same,Bliss excess,[32],-0.0976
same,Bliss excess,[33],-0.0551
same,Bliss excess,[34],-0.0439
same,Bliss excess,[35],0.0911
same,Bliss excess,[36],0.0141
same,Bliss excess,[37],-0.0332
"N#Cc1cnc(Nc2cc(NC[C@H]3CNCCO3)c(C(F)(F)F)cn2)cn1 [SRA737] + O=c1[nH]cc(F)c(=O)[nH]1 [5-Fluorouracil] (first compound max 10 µM, 7x7, partner max 20 µM)",combination Emax,[2],0.167
same,combination Emax,[3],0.84
same,combination Emax,[4],0.411
same,combination Emax,[5],0.311
same,combination Emax,[6],0.625
same,combination Emax,[7],0.736
same,combination Emax,[8],0.381
same,combination Emax,[9],0.728
same,combination Emax,[10],0.72
same,combination Emax,[11],0.835
same,combination Emax,[12],0.378
same,combination Emax,[13],0.521
same,combination Emax,[14],0.855
same,combination Emax,[15],0.373
same,combination Emax,[16],0.538
same,combination Emax,[17],0.302
same,combination Emax,[18],0.147
same,combination Emax,[19],0.197
same,Bliss excess,[20],-0.0344
same,Bliss excess,[21],0.0671
same,Bliss excess,[22],0.0093
same,Bliss excess,[23],-0.0727
same,Bliss excess,[24],-0.0167
same,Bliss excess,[25],-0.0104
same,Bliss excess,[26],-0.0428
same,Bliss excess,[27],-0.057
same,Bliss excess,[28],0.0718
same,Bliss excess,[29],-0.0482
same,Bliss excess,[30],-0.046
same,Bliss excess,[31],-0.0095
same,Bliss excess,[32],-0.0681
same,Bliss excess,[33],0.0035
same,Bliss excess,[34],-0.0522
same,Bliss excess,[35],0.0047
same,Bliss excess,[36],-0.0132
same,Bliss excess,[37],-0.0379
